According to US11512097B2, “Heterocyclic compounds as Delta-5 desaturase inhibitors and methods of use” (Amgen Inc., priority 2019, dated 2022):

Target: T1, Delta-5-Desaturase (D5D), membrane preparations of D5D-overexpressing HEK293 6E cells (Homo sapiens, UniProt O60427)
T1 construct: expressed in transfected cells; host or cells: HEK293 6E cells (membrane preparation)
Test: In vitro measurement of Delta-5-Desaturase inhibitory activity using DGLA-CoA and Arachidonyl-CoA mass spectrometric assays
Assay type: biochemical
Conditions: D5D membrane 10 μg/mL, one-hour incubation, average of at least two independent runs
Summary of the method: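 Substrate mix (0.01 mM DGLA with NADH, ATP, coenzyme A) was incubated 1 h at room temperature with HEK293 6E D5D membranes at 10 μg/mL final, pH 7.5. Negative-mode SPE-MS/MS monitored DGLA-CoA (m/z 526.6) and arachidonyl-CoA (m/z 525.6). Inhibition normalised to DMSO and no-enzyme wells gave IC50s, mean of ≥2 runs.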

T1 sequence (O60427 whole entry, species assumed): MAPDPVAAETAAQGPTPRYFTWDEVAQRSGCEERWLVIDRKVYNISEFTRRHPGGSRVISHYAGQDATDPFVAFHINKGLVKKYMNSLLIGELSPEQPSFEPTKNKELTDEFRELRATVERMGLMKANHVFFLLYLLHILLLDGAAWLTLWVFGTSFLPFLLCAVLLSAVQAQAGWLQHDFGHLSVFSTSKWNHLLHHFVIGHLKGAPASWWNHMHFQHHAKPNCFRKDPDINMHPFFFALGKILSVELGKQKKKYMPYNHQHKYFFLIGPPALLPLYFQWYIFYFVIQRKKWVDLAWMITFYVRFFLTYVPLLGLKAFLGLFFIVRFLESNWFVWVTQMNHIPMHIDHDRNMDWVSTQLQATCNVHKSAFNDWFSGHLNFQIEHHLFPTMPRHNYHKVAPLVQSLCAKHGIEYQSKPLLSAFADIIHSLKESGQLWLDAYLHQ

IC50 [nM]	Structure (SMILES)
4.6	O=c1c(-c2cnn(CCC(F)(F)F)c2)c(C(F)(F)F)nc2sccn12 [Example 8, 7-(trifluoromethyl)-6-[1-(3,3,3-trifluoropropyl)-1H-pyrazol-4-yl]-5H-[1,3]thiazolo[3,2-a]pyrimidin-5-one]
17.8	Cc1cn2c(=O)c(-c3cnn(CC(F)(F)C(F)(F)F)c3)c(C(F)(F)F)nc2s1 [Example 4, 2-methyl-6-[1-(2,2,3,3,3-pentafluoropropyl)-1H-pyrazol-4-yl]-7-(trifluoromethyl)-5H-[1,3]thiazolo[3,2-a]pyrimidin-5-one]
12	Cc1cn2c(=O)c(-c3cnn(C[C@@H]4CC4(F)F)c3)c(C(F)(F)F)nc2[nH]1 (single isomer, unassigned) [Example 108]
6.6	Cc1cn2c(=O)c(-c3cnn(CCC(F)(F)F)c3)c(C(F)(F)F)nc2n1CC1CC1 [Example 66, 1-(cyclopropylmethyl)-2-methyl-7-(trifluoromethyl)-6-[1-(3,3,3-trifluoropropyl)-1H-pyrazol-4-yl]-1H,5H-imidazo[1,2-a]pyrimidin-5-one]
815	Cc1cn2c(=O)c(-c3cnn(CC4COC4)c3)c(C(F)(F)F)nc2n1C [Example 65, 1,2-dimethyl-6-{1-[(oxetan-3-yl)methyl]-1H-pyrazol-4-yl}-7-(trifluoromethyl)-1H,5H-imidazo[1,2-a]pyrimidin-5-one]
12.5	Cc1cn2c(=O)c(-c3cnn(C[C@H]4CC4(F)F)c3)c(C(F)(F)F)nc2[nH]1 (single isomer, unassigned) [Example 107]
105	Cc1cn2c(=O)c(-c3cnn(CCC(F)(F)F)c3)c(C(F)(F)F)nc2n1CC1CC1(F)F (centres unmarked) [Example 81, 1-[(2,2-difluorocyclopropyl)methyl]-2-methyl-7-(trifluoromethyl)-6-[1-(3,3,3-trifluoropropyl)-1H-pyrazol-4-yl]-1H,5H-imidazo[1,2-a]pyrimidin-5-one]
73.7	Cc1cn2c(=O)c(-c3cnn(CC4CC4)c3)c(C(F)(F)F)nc2n1C [Example 61, 6-[1-(cyclopropylmethyl)-1H-pyrazol-4-yl]-1,2-dimethyl-7-(trifluoromethyl)-1H,5H-imidazo[1,2-a]pyrimidin-5-one]
18.8	Cc1cn2c(=O)c(-c3cnn(CC(F)(F)C(F)(F)F)c3)c(C(F)(F)F)nc2o1 [Example 39, 2-methyl-6-[1-(2,2,3,3,3-pentafluoropropyl)-1H-pyrazol-4-yl]-7-(trifluoromethyl)-5H-[1,3]oxazolo[3,2-a]pyrimidin-5-one]

Second part, the compound before the results:

Structure (SMILES)	IC50 [nM]
Cc1cn2c(=O)c(-c3cnn(CCC(F)(F)F)c3)c(C(F)(F)F)nc2n1CCN(C)C [Example 67, 1-[2-(dimethylamino)ethyl]-2-methyl-7-(trifluoromethyl)-6-[1-(3,3,3-trifluoropropyl)-1H-pyrazol-4-yl]-1H,5H-imidazo[1,2-a]pyrimidin-5-one]	1480
O=c1c(-c2ccc(OCC(F)(F)F)cc2)c(C(F)(F)F)nc2sc(Cl)cn12 [Example 34, 2-chloro-6-[4-(2,2,2-trifluoroethoxy)phenyl]-7-(trifluoromethyl)-5H-[1,3]thiazolo[3,2-a]pyrimidin-5-one]	4.8
Cc1cn2c(=O)c(-c3ccc(OCC(F)(F)F)cc3)c(C(F)(F)F)nc2n1CCN(C)C [Example 69, 1-[2-(dimethylamino)ethyl]-2-methyl-6-[4-(2,2,2-trifluoroethoxy)phenyl]-7-(trifluoromethyl)-1H,5H-imidazo[1,2-a]pyrimidin-5-one]	13500
Cn1cc(Cl)n2c(=O)c(-c3cnn(CC(F)(F)C(F)(F)F)c3)c(C(F)(F)F)nc12 [Example 44, 3-chloro-1-methyl-6-[1-(2,2,3,3,3-pentafluoropropyl)-1H-pyrazol-4-yl]-7-(trifluoromethyl)-1H,5H-imidazo[1,2-a]pyrimidin-5-one]	3210
Cc1cn2c(=O)c(-c3cnn(CC(F)(F)C(F)(F)F)c3)c(C(F)(F)F)nc2n1CCN(C)C [Example 84, 1-[2-(dimethylamino)ethyl]-2-methyl-6-[1-(2,2,3,3,3-pentafluoropropyl)-1H-pyrazol-4-yl]-7-(trifluoromethyl)-1H,5H-imidazo[1,2-a]pyrimidin-5-one]	193
COc1cn2c(=O)c(-c3cnn(CCC(F)(F)F)c3)c(C(F)(F)F)nc2n1C [Example 72, 2-methoxy-1-methyl-7-(trifluoromethyl)-6-[1-(3,3,3-trifluoropropyl)-1H-pyrazol-4-yl]-1H,5H-imidazo[1,2-a]pyrimidin-5-one]	135
COCc1cn2c(=O)c(-c3cnn(CC(F)(F)C(F)(F)F)c3)c(C(F)(F)F)nc2n1C [Example 55, 2-(methoxymethyl)-1-methyl-6-[1-(2,2,3,3,3-pentafluoropropyl)-1H-pyrazol-4-yl]-7-(trifluoromethyl)-1H,5H-imidazo[1,2-a]pyrimidin-5-one]	210
O=c1c(-c2cnn(CC(F)(F)C(F)(F)F)c2)c(C(F)(F)F)nc2sc(CF)nn12 [Example 104, 2-(fluoromethyl)-6-[1-(2,2,3,3,3-pentafluoropropyl)-1H-pyrazol-4-yl]-7-(trifluoromethyl)-5H-[1,3,4]thiadiazolo[3,2-a]pyrimidin-5-one]	100
O=C1Cn2c(nc(C(F)(F)F)c(-c3cnn(CC(F)(F)C(F)(F)F)c3)c2=O)N1 [Example 47, 6-[1-(2,2,3,3,3-pentafluoropropyl)-1H-pyrazol-4-yl]-7-(trifluoromethyl)-1H,2H,3H,5H-imidazo[1,2-a]pyrimidine-2,5-dione]	4950
Cc1cn2c(=O)c(-c3ccc(OCC(F)(F)F)cc3)c(C(F)(F)F)nc2n1CC1CC1 [Example 68, 1-(cyclopropylmethyl)-2-methyl-6-[4-(2,2,2-trifluoroethoxy)phenyl]-7-(trifluoromethyl)-1H,5H-imidazo[1,2-a]pyrimidin-5-one]	356
Cc1cn2c(=O)c(-c3ccn(CC(F)(F)C(F)(F)F)n3)c(C(F)(F)F)nc2n1C [Example 70, 1,2-dimethyl-6-[1-(2,2,3,3,3-pentafluoropropyl)-1H-pyrazol-3-yl]-7-(trifluoromethyl)-1H,5H-imidazo[1,2-a]pyrimidin-5-one]	5150
Cc1cccc(-n2c(C)cn3c(=O)c(-c4cnn(CC(F)(F)C(F)(F)F)c4)c(C(F)(F)F)nc23)n1 [Example 96, 2-methyl-1-(6-methylpyridin-2-yl)-6-[1-(2,2,3,3,3-pentafluoropropyl)-1H-pyrazol-4-yl]-7-(trifluoromethyl)-1H,5H-imidazo[1,2-a]pyrimidin-5-one]	19.4
Cn1nnn2c(=O)c(-c3cnn(CC(F)(F)C(F)(F)F)c3)c(C(F)(F)F)nc12 [Example 28, 3-methyl-6-[1-(2,2,3,3,3-pentafluoropropyl)-1H-pyrazol-4-yl]-5-(trifluoromethyl)-3H,7H-[1,2,3,4]tetrazolo[1,5-a]pyrimidin-7-one]	6
O=c1c(-c2ccc(OCC(F)(F)F)cc2)c(C(F)(F)F)nc2sc(CO)cn12 [Example 33, 2-(hydroxymethyl)-6-[4-(2,2,2-trifluoroethoxy)phenyl]-7-(trifluoromethyl)-5H-[1,3]thiazolo[3,2-a]pyrimidin-5-one]	0.9
Cc1cn2c(=O)c(-c3cnn(CC(F)(F)C(F)(F)F)c3)c(C(F)(F)F)nc2n1C1COC1 [Example 91, 2-methyl-1-(oxetan-3-yl)-6-[1-(2,2,3,3,3-pentafluoropropyl)-1H-pyrazol-4-yl]-7-(trifluoromethyl)-1H,5H-imidazo[1,2-a]pyrimidin-5-one]	10.1
Cc1cn2c(=O)c(-c3cnn(CC(F)(F)C(F)(F)F)c3)c(C(F)(F)F)nc2n1-c1cnn(C)c1 [Example 97, 2-methyl-1-(1-methyl-1H-pyrazol-4-yl)-6-[1-(2,2,3,3,3-pentafluoropropyl)-1H-pyrazol-4-yl]-7-(trifluoromethyl)-1H,5H-imidazo[1,2-a]pyrimidin-5-one]	29.3
Cc1cn2c(=O)c(-c3cnn(CC(F)(F)C(F)(F)F)c3)c(C(F)(F)F)nc2n1-c1ccccn1 [Example 93, 2-methyl-6-[1-(2,2,3,3,3-pentafluoropropyl)-1H-pyrazol-4-yl]-1-(pyridin-2-yl)-7-(trifluoromethyl)-1H,5H-imidazo[1,2-a]pyrimidin-5-one]	678
Cc1nn2c(=O)c(-c3cnn(CCC(F)(F)F)c3)c(C(F)(F)F)nc2s1 [Example 20, 2-methyl-7-(trifluoromethyl)-6-[1-(3,3,3-trifluoropropyl)-1H-pyrazol-4-yl]-5H-[1,3,4]thiadiazolo[3,2-a]pyrimidin-5-one]	32.9
Cc1cn2c(=O)c(-c3cnn(CC(F)(F)C(F)(F)F)c3)c(C(F)(F)F)nc2n1-c1ccccc1 [Example 100, 2-methyl-6-[1-(2,2,3,3,3-pentafluoropropyl)-1H-pyrazol-4-yl]-1-phenyl-7-(trifluoromethyl)-1H,5H-imidazo[1,2-a]pyrimidin-5-one]	4120
CCc1nc2sc(C)nn2c(=O)c1-c1cnn(CC(F)(F)C(F)(F)F)c1 [Example 15, 7-ethyl-2-methyl-6-[1-(2,2,3,3,3-pentafluoropropyl)-1H-pyrazol-4-yl]-5H-[1,3,4]thiadiazolo[3,2-a]pyrimidin-5-one]	1510
